# Like-named read-outs stand apart in the source and are kept apart here.
# What was measured:
# platelets = test: Platelet aggregation study; type: cell-based, rats; details: blood incubated 2 h, Leishman-stained slides
# Method: A 1 mL blood sample was collected in heparinized tubes to prevent coagulation. […] The platelet aggregation was then examined both quantitatively and qualitatively. The qualitative analysis was conducted through microscopic examination of stained blood smears. Blood smears were prepared on clean glass slides after the 2-h incubation period. The slides were air-dried and subsequently stained with Leishman's stain for 5 min (Span Diagnostics, India). Following the staining, the slides were rinsed with distilled water, and a cover glass was placed on each slide for visualization under an optical microscope using an immersion objective. Images were captured using a digital camera.
# As a control, whole blood incubated with an equivalent volume of PBS was used as the spontaneous control.
# [1] = cited from earlier work
# HCT116 cells [2] = test: Cellular apoptosis (Annexin V FITC/PI flow cytometry); type: cell-based; details: HCT116, IC50 dose
# Method: HCT116 cell lines were seeded, cultured and subjected up to IC-50 dose of compound. Subsequent to treatment, cells underwent two washes with cold PBS. Resuspended cells were placed in 1X binding buffer at a concentration of 1x10^6 cells/ml, and the cells were divided into distinct groups, namely Unstained cells, Control group, Annexin only, PI only, and Treatment. Following the division into labelled tubes, Annexin V FITC and PI were introduced to their respective tubes. After vortexing and an incubation period of 15 min at room temperature, 1X Binding buffer was added to each tube. Subsequently, the samples were analyzed by a Flow Cytometer within 1 h.
# [3] = In vitro drug release (dialysis tube) and kinetic models; type: physicochemical; details: PBS pH 5.5, 37 °C
# Method: We utilized a dialysis tube diffusion system to characterize the in vitro release of drugs from the formulations. This system provides a controlled environment to study the rate and extent of drug release from the formulations, reflecting their potential drug delivery behaviour. […] Tube was inserted into 50 mL of PBS (pH 5.5) with both ends tightened. In order to provide the sink conditions, PBS quantifying to 0.5 mL was added. Formulated medium was heated up to 37 ± 0.5 °C and stirred continuously at speed of 200 rpm. At predefined intervals, a 5 mL sample was taken, and an equal volume of new medium was introduced to keep the final volume, or sink condition, throughout experiment. All test samples were analyzed in triplicate manner and results are expressed as mean ± SD (n = 3).
# To elucidate the kinetics and mechanisms governing drug release, we employed regression analysis to fit the experimental drug release data to various mathematical models. This analysis yielded coefficient constants that shed light on the order of release and the underlying mechanisms involved. (See Supportive Information for further details).
# [4] = test system: castration-resistant prostate cancer (CRPC); details: patients with CRPC; cited from earlier work
# HCT116 cells [5] = test: Mitochondrial membrane potential estimation (JC-1 flow cytometry); type: cell-based; details: HCT-116, IC50 dose, 24 h
# Method: After the incubation period, the medium was aspirated, and cells were harvested using trypsin EDTA. The harvested cells were collected in a 1.5 ml tube and subjected to a single wash with 500 μl of chilled PBS. Subsequently, the cell pellets were resuspended in 400 μl of JC1 staining buffer containing 2 μM JC-1 dye. The samples were then promptly acquired using a Flow Cytometer within a 1-h timeframe.
# [6] = Pharmacokinetics after intravenous administration; type: in vivo, male Albino Wistar rats; details: rats, 15 mg/kg intravenously
# Method: In accordance with the ethical approval (SPTM/2022/IAEC/18), nine male Albino Wistar rats weighing between 200 and 250 g were divided into three groups (n = 3) for proper conduct of pharmacokinetic experiments.
# Blood samples (500 μL) were collected from the rats' tail veins into heparinized tubes and cold centrifuged at 13,500 rpm for 10 min at 4 °C to separate plasma from blood. Subsequently, 100 μL of the separated plasma was mixed with 200 μL of acetonitrile, vortexed for 3 min to extract proteins, and cold centrifuged again at 13,500 rpm for 5 min at 4 °C.
# The supernatant was then diluted with methanol, passed through a membrane filter, and subjected to analysis using a High-Performance Liquid Chromatography (HPLC) system. Isocratic elution was performed with a mobile phase consisting of a 20 mM ammonium acetate buffer and acetonitrile in a 60:40 ratio, at a flow rate of 1.0 mL/min, utilizing a C18 column.
# Tissue distribution = type: in vivo; details: male, albino Wistar, rat, intravenous, 15 mg/kg, rats, 8 h after administration
# Method: To assess the distribution and concentration of a medication within the body following delivery, tissue distribution studies were conducted. Twelve male albino Wistar rats were divided into two groups, each comprising six rats, following the approved institutional protocol by the Committee for the Purpose of Control and Supervision of Experiments on Animals (CPCSEA) (Ref. No.: SPTM/2022/IAEC/18).
# The medications evaluated for tissue distribution were ENZ and the formulation ENZ-PLGA-PSAR-TPGS NPs. After administering the doses for 8 h, the rats were euthanized. Tissue samples, including liver, heart, kidney, lungs, brain, colon, small intestine, stomach, and rectum muscle tissues, were collected. Brain endothelial cells were obtained using a stereotaxic apparatus (USA, Model No. 51500). The collected tissue samples were homogenized in a cold physiological solution and filtered after rinsing with saline water (0.9 percent sodium chloride).
# Subsequently, the samples were analyzed using RP-UHPLC (Dionex Ultimate, 3000) to determine the distribution and concentration of the medications in various tissues.
# erythrocytes = test: Haemolysis study; type: cell-based, male albino rats; details: rat erythrocytes, 100 μg/ml
# Method: For […] control identification, Triton X-100 treatment was employed. A 4 mL blood sample was drawn from male albino rats (220g) using a 23-gauge needle from the lateral saphenous vein of the animal (SPTM/2022/IAEC/18). The blood sample was then centrifuged at 1344×g for 10 min, and the plasma layer was carefully removed. The erythrocytes were washed three times with saline water and incubated with a 100 μg/mL concentration of the samples at 37 °C. Samples of 200 μL each were collected at 0, 1–10 h and centrifuged at 1344×g for 10 min.
# During the incubation, hemoglobin transformed into oxyhemoglobin. The obtained erythrocytes were observed under a microscope, and absorbance readings were taken at 570 nm for different concentrations of samples. All test samples were analyzed in triplicate, and the results are expressed as mean ± SD (n = 3). The percentage of hemolysis can be calculated using the following equation.
# HT-29 cell line = test system: HT-29 cell line; set-up: method as in PMID 31149165; details: 1000 μg/mL, MTT assay; cited from earlier work
# HCT116 cells [7] = test: Cell cycle analysis (PI, flow cytometry); type: cell-based; details: HCT116, IC50 concentration, 24 h
# Method: Following the incubation period, cells were harvested using trypsin and collected in a 1.5 ml tube. After a single wash with 500 μl of chilled PBS, approximately 1 x 10^6 cells were suspended in 100 μl of PBS. The cell suspension was gently vortexed to achieve a mono-dispersed cell suspension with minimal aggregation. Subsequently, the cells were fixed by transferring this suspension with a pipette into centrifuge tubes containing 900 μl of 70 % ethanol, placed on ice, and then incubated for a minimum of 2 h at 4 °C. The fixed cells could be stored in 70 % ethanol at 4 °C for several weeks.
# After fixation, the cells were centrifuged, and the pellet was suspended in 500 μl of Propidium Iodide (PI) staining solution (0.1 % (v/v) Triton X-100, 10 μg/ml PI, and 100 μg/ml DNase-free RNaseA in PBS). This suspension was kept in the dark at room temperature for 30 min or at 37 °C for 10 min. The samples were then acquired on a flow cytometer.
# HCT116 cells [8] = test: Wound healing (scratch) assay; type: cell-based; details: HCT-116, after 48 h, compared to control
# Method: The following day, a scratch was made in the cell monolayer using a 200 μl tip, and the cells were subsequently treated with the specified concentration of the formulation. Photographs were taken at various time intervals ranging from 0 to 48 h.
# The gap area resulting from the scratch was analyzed using Image J Software (NCBI) and was further presented in a graphical format to illustrate the changes over time.
# [9] = male, Albino Wistar, rat, plasma, iv
smiles,measurement,setting,value
"CNC(=O)c1ccc(N2C(=S)N(c3ccc(C#N)c(C(F)(F)F)c3)C(=O)C2(C)C)cc1F [ENZ, Enzalutamide]",platelet aggregation,platelets,no aggregation
same,pKa,[1],4.16
same,early apoptosis (lower right quadrant),HCT116 cells [2],2.7%
same,late apoptosis (upper right quadrant),HCT116 cells [2],10.1%
same,live cells (lower left quadrant),HCT116 cells [2],72.6%
same,pattern of release,[3],poor
same,extension of survival,[4],4.8 months
same,High MMP cells,HCT116 cells [5],3.5%
same,live cells in MMP assay,HCT116 cells [5],52.7%
same,low MMP cells,HCT116 cells [5],41.7%
same,MRT,[6]; [9],5.34 ± 2.43 h
same,Vd,[6]; [9],1.4 ± 0.00356 L
same,clearance,[6]; [9],1.51 mL/min
same,C,[6],226.24 ± 31.2 ng/mL
same,concentration at 8 h,"Tissue distribution; brain, read-out: Concentration in Brain",0.7 ± 0.1 ng/mL
same,concentration at 8 h,"Tissue distribution; colon, read-out: Concentration in Colon",0.95 ± 0.5 ng/mL
same,concentration at 8 h,"Tissue distribution; heart, read-out: Concentration in Heart",0.8 ± 1.1 ng/mL
same,concentration at 8 h,"Tissue distribution; kidney, read-out: Concentration in Kidney",0.57 ± 0.21 ng/mL
same,concentration at 8 h,"Tissue distribution; liver, read-out: Concentration in Liver",1.2 ± 0.13 ng/mL
same,concentration at 8 h,"Tissue distribution; lungs, read-out: Concentration in Lungs",0.5 ± 0.102 ng/mL
same,concentration at 8 h,"Tissue distribution; rectum, read-out: Concentration in Rectum",3.07 ± 0.4 ng/mL
same,concentration at 8 h,"Tissue distribution; spleen, read-out: Concentration in Spleen",0.3 ± 0.1 ng/mL
same,concentration at 8 h,"Tissue distribution; stomach, read-out: Concentration in Stomach",0.21 ± 0.12 ng/mL
same,lysis of RBCs (microscopy),erythrocytes,no occurrence of eruption or lysis of the RBCs
same,cell viability,HT-29 cell line,significant decrease
same,cells in G1 phase,HCT116 cells [7],49.6%
same,cells in G2 (G2/M) phase,HCT116 cells [7],14.5%
same,inhibition of wound area,HCT116 cells [8],inhibited the wound area
